Laboratory results published in patent US20100035867A1 (priority 2006, published 2010).

Legend:
guanylyl cyclase type C = guanylyl cyclase type C (Homo sapiens, UniProt P25092); settings: literature comparator; read-out: potency (IC50); cited from earlier work
[1] = biological target: guanylyl cyclase type C (GC-C) (Homo sapiens, UniProt P25092); experiment: STa-induced activation of GC-C in T84 cells (cyclic GMP accumulation, ELISA); format: cell-based; set-up: endogenous in cells; host or cells: T84 cells
Sequence of guanylyl cyclase type C (GC-C) (P25092 24-1073): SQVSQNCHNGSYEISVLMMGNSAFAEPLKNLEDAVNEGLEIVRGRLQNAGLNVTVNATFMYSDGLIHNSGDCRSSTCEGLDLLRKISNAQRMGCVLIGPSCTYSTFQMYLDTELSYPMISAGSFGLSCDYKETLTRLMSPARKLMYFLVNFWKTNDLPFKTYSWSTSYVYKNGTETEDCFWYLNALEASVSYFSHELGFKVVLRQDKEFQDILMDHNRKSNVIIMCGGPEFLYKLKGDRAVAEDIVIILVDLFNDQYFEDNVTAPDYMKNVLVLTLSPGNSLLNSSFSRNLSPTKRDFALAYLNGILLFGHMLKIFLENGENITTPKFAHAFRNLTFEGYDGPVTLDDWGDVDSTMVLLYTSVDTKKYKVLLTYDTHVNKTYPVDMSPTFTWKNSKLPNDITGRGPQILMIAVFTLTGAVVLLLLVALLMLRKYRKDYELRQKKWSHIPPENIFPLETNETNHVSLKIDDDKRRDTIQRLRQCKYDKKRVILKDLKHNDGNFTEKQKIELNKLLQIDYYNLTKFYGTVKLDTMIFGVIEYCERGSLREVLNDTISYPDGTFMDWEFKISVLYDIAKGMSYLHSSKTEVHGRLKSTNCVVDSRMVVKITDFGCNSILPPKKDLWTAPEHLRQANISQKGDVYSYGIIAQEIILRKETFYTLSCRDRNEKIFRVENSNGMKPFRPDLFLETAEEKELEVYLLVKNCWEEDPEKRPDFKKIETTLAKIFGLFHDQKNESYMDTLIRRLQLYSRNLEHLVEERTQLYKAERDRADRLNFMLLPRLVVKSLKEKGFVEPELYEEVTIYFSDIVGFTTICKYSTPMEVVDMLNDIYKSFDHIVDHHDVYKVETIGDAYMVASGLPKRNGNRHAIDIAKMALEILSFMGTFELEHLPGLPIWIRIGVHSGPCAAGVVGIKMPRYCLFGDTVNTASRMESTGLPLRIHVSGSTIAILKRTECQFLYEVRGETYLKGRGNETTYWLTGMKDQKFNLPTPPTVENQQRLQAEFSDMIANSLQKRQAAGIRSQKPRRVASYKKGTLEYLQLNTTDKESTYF

[2] = system: adenylyl cyclase or guanylyl cyclase; format: cell-based; settings: read-out: typical IC50

Sequence of guanylyl cyclase type C (P25092 24-1073): as above

SMILES | inhibition of STa-induced activation of GC-C (FIG. 2) [1] | also measured
Nc1nc(Cl)nc2c1ncn2[C@@H]1O[C@H](CO)[C@@H](O)[C@H]1O [2-chloroadenosine] | – | IC50 (guanylyl cyclase type C): ~50 µM
Cn1c2c(c(=O)n(C)c1=O)C(c1ccc(O)c(O)c1)C1C(=O)c3ccccc3C1=N2 (centres unmarked) [IIIa] | inhibition | –
Cn1c2c(c(=O)n(C)c1=O)C(c1ccc(O)c(O)c1)C1=C(N2)c2ccccc2C1=O (centres unmarked) [IIIb] | inhibition | –
COc1cc(C2C3=C(Nc4c2c(=O)n(C)c(=O)n4C)c2ccccc2C3=O)ccc1O (centres unmarked) [IVb] | inhibition | –
CC(C)C(=O)N1C2=C(C(=O)c3ccccc32)C(c2ccc(Cl)cc2)c2c1n(C)c(=O)n(C)c2=O (centres unmarked) [VII] | inhibition | –
CCCC(=O)N1C2=C(C(=O)c3ccccc32)C(c2ccc(Cl)cc2)c2c1n(C)c(=O)n(C)c2=O (centres unmarked) [VI] | inhibition | –
CCOc1cc(C2C3=C(Nc4c2c(=O)n(C)c(=O)n4C)c2ccccc2C3=O)ccc1O (centres unmarked) [Vb] | inhibition | –
Cn1c2c(c(=O)n(C)c1=O)C(c1cccc(Br)c1)C1C(=O)c3ccccc3C1=N2 (centres unmarked) [compound IIa, 5-(3-bromophenyl)-1,3-dimethyl-5,11-dihydro-1H-indeno[2′,1′:5,6]pyrido[2,3-d]pyrimidine-2,4,6-trione] | inhibition | IC50 [2]: ~5 µM; inhibition at 50 µM ([1]; 100 nM STa, 50 μM compound): 87.1%; level of cyclic GMP ([1]; 100 nM STa, 50 μM compound, vehicle 124±10, basal 6±2): 21±4 pmol/mg protein
